{"source": "patent US8580776B2", "about": "“Compositions and methods for treating neurodegenerating diseases” (The Board of Trustees of the University of Illinois, priority 2007, dated 2013)", "key": {"microglial marker Mac1": {"system": "microglial marker Mac1", "test": "Glial activation: Mac1 staining of brain sections", "assay_type": "in vivo, mice", "procedure": "The effects of DSP4 treatment on glial activation were assessed in hippocampus and frontal cortex by staining for microglial marker Mac1 and astrocyte marker GFAP (FIG. 3). Sections from vehicle and DSP4 treated H6 mice brains were stained with antibodies directed against Mac1 to assess microglial activation (FIG. 3A-C); and GFAP to assess astrocyte activation (FIG. 3D-F). […] FIGS. 3G-3I show quantitative analysis of Mac1 (FIG. 3G-3H) and GFAP staining (FIG. 31).\nHemibrains were fixed overnight in 4% paraformaldehyde in 0.1M phosphate buffer, then overnight in 10% sucrose in 0.1M phosphate buffer, and then frozen in isopentane at −30° C. Serial sections (35 um thick) were prepared on a cryostat, and stored in cryoprotective solution (0.1M phosphate buffer: ethyleneglycol:glycerol 30:40:30) at −20° C. […] Staining was quantified using software provided by the manufacturer (Zeiss AxioVision). GFAP and Mac1 staining was quantified in 3 different areas on each of 4 serial sections for each animal (n=3 or 4 for Mac1; n=7 or 9 for GFAP staining) The data was average area stained per section (as % total area) from DSP4-treated (n=3 for Mac1; n=7 for GFAP) and vehicle-treated (n=4 for Mac1; n=9 for GFAP) mice. […]"}, "[1]": {"system": "tyrosine hydroxylase (TH)", "test": "QPCR of tyrosine hydroxylase mRNA in DSP4-treated rats", "assay_type": "in vivo, rat", "procedure": "In this experiment, the effects of DSP4 on tyrosine hydroxylase (TH) and IkBα expression were analyzed. Adult rat Sprague Dawley rats were treated with the selective neurotoxin DSP4 to lesion locus ceruleus (LC) noradrenergic neurons and deplete cortical NA levels as described in Example 1.\nRNA samples from control or DSP4-treated rats (n=4 each) were converted to cDNA and analyzed by QPCR for relative levels of tyrosine hydroxylase (TH) (FIG. 6A) in the locus ceruleus (LC).\nTotal cytoplasmic RNA from tissues was prepared from cells using TRIZOL reagent according to manufacturer procedures (Invitrogen/GIBCO); aliquots were converted to cDNA using random hexamer primers, and mRNA levels were estimated by quantitative touchdown PCR (QPCR). Conditions were 35 cycles of denaturation at 94° C. for 10 s; annealing at 58-64° C. for 15 s; and extension at 72° C. for 20 s on a Corbett Rotorgene Real-Time PCR unit (Corbett, Australia). The PCR mastermix contained SYBR Green (1 μl diluted 1:10,000 SybrGreen I 10,000× concentrate, Molecular Probes, Eugene, Oreg.). Relative mRNA concentrations were calculated from the takeoff point of reactions using manufacturer's software. Melting curve analysis and agarose gel electrophoresis were performed to ensure production of single and corrected size products. Relative mRNA values were normalized to housekeeping genes, either α-Tubulin (α-Tub), β-Actin (βAct) or glyceraldehyde-3-phosphate dehydrogenase (GDH). The primers used for QPCR (all listed 5′ to 3′) were: […]\nAfter acclimation (7-10 days), rats received two intraperitoneal injections (one week apart) of either N-(2-chloroethyl)-N-ethyl-2 bromobenzylamine (DSP4, 5 mg/kg) dissolved in PBS or PBS alone (FIG. 6A). Four weeks after the second treatment, the animals were anesthetized with pentobarbital (50 mg/kg i.p.), and placed in a stereotaxic frame (Stoelting, USA) on a heating blanket. Body temperature was maintained at 37±0.5° C. for the time of surgery. […]"}}}
{"smiles": "CCN(CCCl)Cc1ccccc1Br", "note": "[DSP4, N-(2-chloroethyl)-N-ethyl-2-bromobenzylamine]", "values": [{"measurement": "Mac1 staining, hippocampus and frontal cortex", "setting": "microglial marker Mac1; hippocampus effect not statistically significant", "result": "increased Mac1 staining in both regions"}, {"measurement": "increase in Mac1 staining, frontal cortex", "setting": "microglial marker Mac1; versus vehicle, statistically significant", "result": "approximately 40%"}, {"measurement": "TH mRNA levels in the LC", "setting": "[1]; DSP4-treated rats, n=4", "result": 57, "unit": "% versus control levels"}, {"measurement": "reduction in cortical TH mRNA levels", "setting": "[1]; not statistically significant, P>0.05", "result": 25, "unit": "%"}, {"measurement": "reduction of LC TH mRNA", "setting": "[1]; versus control values, n=4", "result": 43, "unit": "%"}]}
